Earlier results as cited in patent US20210402001A1, “Zinc Porters, and their Monoclonal Antibody Conjugates, for the Prevention and Treatment of COVID-19 (SARS-CoV-2), Other Infections, and Cancers” (priority 2020, published 2021).

What was measured:
[1] = oxidized HDEFA5
[2] = system: trypsin; conditions: reduced state, five trypsin cleavage sites
[3] = system: blood platelets; conditions: healthy individuals, single oral dose of 220 mg
[4] = intranasal

| Compound | Zn dissociation constant [1] | degradation by gut trypsin [2] | platelet activity [3] | loss of smell (anosmia) [4] |
| --- | --- | --- | --- | --- |
| ATCYCRTGRCATRESLSGVCEISGRLYRLCCR [HDEFA5] | picomolar | rapidly degraded | – | – |
| O=S(=O)([O-])[O-].[Zn+2] [Zn sulfate] | – | – | hyperactive | profound acute anosmia |
